In article PMC10585379, “Hydrophobic moment drives penetration of bacterial membranes by transmembrane peptides” (The Journal of Biological Chemistry, 2023):
In brackets after ≈: the same amount, converted by molar mass. Where a SMILES comes first, the peptide text is derived from it. [ ]: non-standard residue; d: D form. Sar = CNCC(=O)O

Assays:
E. coli K12 [1] = assay type: cell-based, Escherichia coli; conditions: E. coli K12, Mueller-Hinton broth, 50,000 CFU/well, up to 64 μM peptide, 37 °C, 20 h, OD 600 nm; concentration giving >99% reduction in growth; mean and standard deviation of the mean
Procedure: Overnight cultures of E. coli K-12 grown in Mueller-Hinton broth were incubated at 50,000 CFU/well with up to 64 μM of peptide in 96-well plates (Corning, Ref 3598). Plates were then incubated at 37 °C for 20 h, after which the optical density (OD) was measured at 600 nm. Minimum inhibitory concentration (MIC) was determined as the peptide concentration resulting in >99% reduction in growth.

E. coli K12 [2] = assay type: cell-based, Escherichia coli; conditions: E. coli K12 in M9 minimal media, 30 μM DiOC2(3) 5 min, 20 μM CCCP or 8 μM peptide, 37 °C, up to 180 min, ex 450/em 510 nm; duplicate, three independent days
Procedure: Overnight cultures of E. coli K12 grown in Luria-Bertani (LB) broth were pelleted and resuspended to an OD600 of 0.4 in M9 minimal media. Cultures were grown at 37 °C for 30 min prior to being incubated with 10 mM EDTA for 5 min. Cultures were pelleted again and resuspended in fresh M9 minimal media to remove EDTA before the addition of 30 μM 3,3′-diethyloxacarbocynanine iodide (DiOC2 ([3]); Invitrogen). […] Fluorescence was measured immediately at 37 °C every 3 min for up to 3 h using a SpectraMax Gemini EM microplate reader set to 450 nm excitation and 510 nm emission wavelengths. Fluorescence curves were normalized to wells containing only dye and then plotted and analyzed using GraphPad Prism 9. Data at 15-min intervals are presented as mean and standard deviation of the mean for ease of visualization. Experiments were performed in duplicate and repeated on three independent days.

[3] = Tryptophan quenching assay with dibrominated lipid LUVs; assay type: physicochemical; conditions: 5 μM peptide or BSA, peptide-to-lipid ratio of 62.5, 0-30% brominated lipid, Stern-Volmer plot; mean of three independent analyses
Procedure: Large unilamellar vesicles (LUVs) were prepared using methods previously described ([14]). Briefly, 1-palmitoyl-2-oleoyl-sn-glycero-3-phosphoethanolamine (POPE) and 1-palmitoyl-2-oleoyl-sn-glycero-3-phospho-(1′-rac-glycerol) (POPG) (Avanti Polar Lipids) were combined in a 3:1 ratio, respectively, in chloroform and dried to a film before water washing and lyophilizing into a powder. This powder was resuspended in Tris-Cl buffer (10 mM Tris, 10 mM NaCl, pH 7), freeze-thawed 5× (dry ice – 50 °C water bath) and extruded through a mini-extruder fitted with a 0.2 μm Whatman Nuclepore polycarbonate membrane filter (Cytiva) at least 15× to form LUVs. Where applicable, 1-palmitoyl-2-(6,7-dibromo)stearoyl-sn-glycero-3-phosphocholine (PC-Br ([6], [7])) or 1-palmitoyl-2-(11,12-dibromo)stearoyl-sn-glycero-3-phosphocholine (PC-Br ([11], [12])) (Avanti Polar Lipids) were substituted for POPE at the given percentages and incorporated into LUVs as described.
Brominated lipid-containing LUVs (0%, 10%, 20%, and 30%) were combined with 5 μM peptide and tryptophan emission fluorescence was recorded from 300 to 400 nm using a 280 nm excitation wavelength. Fluorescence spectra were plotted and the area under the curve was used to generate a Stern-Volmer plot of initial fluorescence/quenched fluorescence (Fo/F) against percentage brominated lipid. […]

[4] = Circular dichroism, peptide secondary structure; assay type: physicochemical; conditions: 20 μM peptide, 10 mM Tris-Cl, 10 mM NaCl, pH 7, minima at 208 and 222 nm, average of three independent analyses
Procedure: Circular dichroism (CD) spectra of peptides were recorded between 190 and 250 nm on a Jasco J-1500 CD spectropolarimeter using a 0.1 cm pathlength quartz cuvette, scanning at […] with three accumulations. Peptide spectra were acquired in either water, 20% acetonitrile, 140 mM sodium dodecyl sulfate (SDS), or 3:1 POPE:POPG, in buffer (10 mM Tris-Cl, 10 mM NaCl, pH 7), at a constant peptide concentration of 20 μM and then plotted using GraphPad Prism 9. Data are presented from 200 to 250 nm for ease of visualization. Raw millidegree (mdeg) spectra were background subtracted and converted to mean residue ellipticity (MRE) using Equation 1 below, where c is the concentration in μM, l is the pathlength in cm, and n is the number of residues.(1) MRE=100(mdeg)/cln
Using the MRE value at 222 nm, the peptide helical percentage was estimated using Equation 2 below ([45], [46]), where MRE222 is the MRE value at 222 nm and n is the number of peptide bonds.(2) %Helix=100(MRE222/(−39,500(1−2.57/n)))

| Compound | MIC (E. coli K12 [1]) [µM] | Dissipation of the proton motive force (DiOC2(3) RFU) (E. coli K12 [2]) | Tryptophan fluorescence quenching by PC-Br(11,12)-containing LUVs (depth of insertion) [3] | Peptide secondary structure in the aqueous phase (CD) [4] |
| --- | --- | --- | --- | --- |
| CC[C@H](C)[C@H](NC(=O)CN)C(=O)NCC(=O)N[C@@H](C)C(=O)N[C@H](C(=O)N[C@@H](CC(C)C)C(=O)N[C@@H](CCCCN)C(=O)N[C@H](C(=O)N[C@@H](CC(C)C)C(=O)N[C@H](C(=O)N[C@H](C(=O)NCC(=O)N[C@@H](CC(C)C)C(=O)N1CCC[C@H]1C(=O)N[C@@H](C)C(=O)N[C@@H](CC(C)C)C(=O)N[C@H](C(=O)N[C@@H](CO)C(=O)N[C@@H](Cc1c[nH]c2ccccc12)C(=O)N[C@H](C(=O)N[C@@H](CCCCN)C(=O)N[C@@H](CCCNC(=N)N)C(=O)N[C@@H](CCCCN)C(=O)N[C@@H](CCCNC(=N)N)C(=O)N[C@@H](CCC(N)=O)C(=O)N[C@@H](CCC(N)=O)C(N)=O)[C@@H](C)CC)[C@@H](C)CC)[C@@H](C)O)[C@@H](C)O)C(C)C)C(C)C [Melittin, reference compound] | 5 ± 2 (≈ 14.2 µg/mL) | – | – | – |
| CC[C@H](C)[C@H](NC(=O)[C@H](C)NC(=O)[C@H](CC(C)C)NC(=O)CNC(=O)CNC(=O)[C@H](C)NC(=O)[C@H](CC(C)C)NC(=O)[C@H](CCSC)NC(=O)[C@@H](NC(=O)[C@@H](NC(=O)[C@@H](NC(=O)[C@H](C)NC(=O)[C@@H](NC(=O)[C@@H](NC(=O)[C@H](Cc1c[nH]c2ccccc12)NC(=O)[C@H](C)NC(=O)[C@H](Cc1ccccc1)NC(=O)[C@@H](NC(=O)[C@@H]1CCCN1C(=O)CN(C)C(=O)CN(C)C(=O)CN(C)C(=O)[C@H](C)NC(C)=O)[C@@H](C)CC)C(C)C)[C@@H](C)CC)[C@@H](C)CC)[C@@H](C)CC)[C@@H](C)CC)C(=O)N[C@@H](CC(C)C)C(=O)N[C@@H](CCCCN)C(=O)N[C@@H](CC(C)C)C(=O)N[C@@H](CCCCN)C(=O)N[C@@H](CCCCN)C(=O)N[C@@H](CCCCN)C(=O)N[C@@H](CCCCN)C(N)=O [TM1-1] (Ac-A[Sar][Sar][Sar]PIFAWVIAIIIMLAGGLAILKLKKKK-NH2) | >64 | re-establish the PMF back in the range of untreated cultures | – | – |
| CC[C@H](C)[C@H](NC(=O)[C@H](C)NC(=O)[C@@H](NC(=O)[C@H](CC(C)C)NC(=O)[C@@H](NC(=O)[C@H](Cc1c[nH]c2ccccc12)NC(=O)CNC(=O)[C@H](C)NC(=O)[C@H](CCSC)NC(=O)[C@H](C)NC(=O)CNC(=O)[C@H](Cc1ccccc1)NC(=O)[C@@H](NC(=O)[C@H](CC(C)C)NC(=O)[C@H](CC(C)C)NC(=O)[C@@H](NC(=O)[C@@H]1CCCN1C(=O)[C@@H](NC(=O)CN(C)C(=O)CN(C)C(=O)CN(C)C(=O)[C@H](C)NC(C)=O)C(C)C)[C@@H](C)CC)[C@@H](C)CC)[C@@H](C)CC)[C@@H](C)CC)C(=O)N[C@H](C(=O)N[C@@H](C)C(=O)N[C@@H](CCCCN)C(=O)N[C@@H](CC(C)C)C(=O)N[C@@H](CCCCN)C(=O)N[C@@H](CCCCN)C(=O)N[C@@H](CCCCN)C(=O)N[C@@H](CCCCN)C(N)=O)[C@@H](C)CC [TM1-2] (Ac-A[Sar][Sar][Sar]VPILLIFGAMAGWILIAIIAKLKKKK-NH2) | >64 | re-establish the PMF back in the range of untreated cultures | – | – |
| CC[C@H](C)[C@H](NC(=O)CNC(=O)[C@H](CC(C)C)NC(=O)[C@H](Cc1c[nH]c2ccccc12)NC(=O)[C@H](C)NC(=O)[C@@H](NC(=O)[C@@H](NC(=O)[C@H](CCSC)NC(=O)[C@@H](NC(=O)[C@H](C)NC(=O)[C@H](Cc1ccccc1)NC(=O)[C@H](C)NC(=O)[C@H](CC(C)C)NC(=O)[C@H](CC(C)C)NC(=O)CNC(=O)[C@@H]1CCCN1C(=O)[C@@H](NC(=O)CN(C)C(=O)CN(C)C(=O)CN(C)C(=O)[C@H](C)NC(C)=O)C(C)C)[C@@H](C)CC)[C@@H](C)CC)[C@@H](C)CC)C(=O)N[C@@H](C)C(=O)N[C@H](C(=O)N[C@H](C(=O)N[C@@H](CCCCN)C(=O)N[C@@H](CC(C)C)C(=O)N[C@@H](CCCCN)C(=O)N[C@@H](CCCCN)C(=O)N[C@@H](CCCCN)C(=O)N[C@@H](CCCCN)C(N)=O)[C@@H](C)CC)[C@@H](C)CC [TM1-3] (Ac-A[Sar][Sar][Sar]VPGLLAFAIMIIAWLGIAIIKLKKKK-NH2) | >64 | – | penetrate deeper into the lipid bilayer | – |
| CC[C@H](C)[C@H](NC(=O)[C@H](C)NC(=O)[C@H](CCSC)NC(=O)[C@H](C)NC(=O)[C@@H](NC(=O)[C@H](Cc1ccccc1)NC(=O)CNC(=O)[C@H](CC(C)C)NC(=O)[C@H](CC(C)C)NC(=O)CNC(=O)[C@@H]1CCCN1C(=O)[C@@H](NC(=O)CN(C)C(=O)CN(C)C(=O)CN(C)C(=O)[C@H](C)NC(C)=O)C(C)C)[C@@H](C)CC)C(=O)N[C@@H](Cc1c[nH]c2ccccc12)C(=O)N[C@H](C(=O)N[C@@H](CC(C)C)C(=O)N[C@H](C(=O)N[C@@H](C)C(=O)N[C@H](C(=O)N[C@H](C(=O)N[C@@H](C)C(=O)N[C@@H](CCCCN)C(=O)N[C@@H](CC(C)C)C(=O)N[C@@H](CCCCN)C(=O)N[C@@H](CCCCN)C(=O)N[C@@H](CCCCN)C(=O)N[C@@H](CCCCN)C(N)=O)[C@@H](C)CC)[C@@H](C)CC)[C@@H](C)CC)[C@@H](C)CC [TM1-4] (Ac-A[Sar][Sar][Sar]VPGLLGFIAMAIWILIAIIAKLKKKK-NH2) | >64 | – | penetrate deeper into the lipid bilayer | strongest helix |
| carbonyl cyanide m-chlorophenylhydrazine [CCCP, reference compound] | – | immediate increase in RFU | – | – |
